In assay [1] the target is Calcium/calmodulin-dependent protein kinase kinase 2 (Homo sapiens) (UniProt Q96RR4). Nature of the assay: Selectivity interaction (ActivX KiNativ screen (ex vivo kinase selectivity in human PBMCs)) EUB0001619a CAMKK2. The assay is classed as cell-based. Conditions: PBMC, at 1 µM.
Assay [2] addresses Calcium/calmodulin-dependent protein kinase type II subunit alpha (Homo sapiens, UniProt Q9UQM7). Nature of the assay: Selectivity interaction (SelectScreen profiling (Invitrogen)) EUB0000607a CAMK2A. The conditions noted are these: at 2 µM.
Assay [3] concerns the target Ribosomal protein S6 kinase alpha-4 (Homo sapiens) (UniProt O75676). Nature of the assay: Selectivity interaction (KinomeScan (DiscoverX)) EUB0000607a RPS6KA4. The conditions noted are these: at 10 µM.
Assay [4] concerns the target Mast/stem cell growth factor receptor Kit (Homo sapiens, UniProt P10721). Nature of the assay: Selectivity interaction (Kinase screening (Nanosyn)) EUB0000604a KIT.
In assay [5] the target is Tyrosine-protein kinase Fes/Fps (Homo sapiens) (UniProt P07332). Nature of the assay: Selectivity interaction (ActivX KiNativ screen (kinase selectivity in THP-1 cell lysates)) EUB0000639a FES. The assay is classed as subcellular. Conditions: lysate.
Chain of Tyrosine-protein kinase Fes/Fps (Homo sapiens) (P07332 whole entry): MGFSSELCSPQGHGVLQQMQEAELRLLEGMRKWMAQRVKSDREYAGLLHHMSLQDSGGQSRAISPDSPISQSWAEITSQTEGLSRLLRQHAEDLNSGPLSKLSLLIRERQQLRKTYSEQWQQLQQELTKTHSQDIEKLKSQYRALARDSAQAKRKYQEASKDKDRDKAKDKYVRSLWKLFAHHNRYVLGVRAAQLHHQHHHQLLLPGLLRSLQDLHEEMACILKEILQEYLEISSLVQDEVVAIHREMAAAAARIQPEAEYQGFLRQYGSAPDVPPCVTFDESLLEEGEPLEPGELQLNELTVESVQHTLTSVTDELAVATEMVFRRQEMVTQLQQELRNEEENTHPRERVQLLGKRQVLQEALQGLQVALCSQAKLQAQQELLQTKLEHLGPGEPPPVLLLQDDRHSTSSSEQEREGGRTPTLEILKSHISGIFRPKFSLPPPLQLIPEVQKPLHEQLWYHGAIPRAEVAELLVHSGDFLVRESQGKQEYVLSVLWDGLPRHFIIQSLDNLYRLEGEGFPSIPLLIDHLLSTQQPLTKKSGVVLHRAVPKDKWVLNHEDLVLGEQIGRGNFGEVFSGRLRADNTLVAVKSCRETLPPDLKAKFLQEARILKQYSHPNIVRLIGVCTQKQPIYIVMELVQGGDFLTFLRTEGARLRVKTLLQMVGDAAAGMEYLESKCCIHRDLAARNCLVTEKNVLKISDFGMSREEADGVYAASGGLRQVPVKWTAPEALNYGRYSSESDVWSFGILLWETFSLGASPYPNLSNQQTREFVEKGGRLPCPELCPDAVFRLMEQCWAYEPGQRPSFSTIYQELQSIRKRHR
Another assay has as its target Aurora kinase B (Homo sapiens, UniProt Q96GD4). Nature of the assay: Selectivity interaction (ActivX KiNativ screen (kinase selectivity in THP-1 cell lysates)) EUB0000639a AURKB. The conditions noted are these: lysate, at 0.2 µM. The assay is classed as subcellular.
In assay [6] the target is T1, Protein arginine N-methyltransferase 7 (Homo sapiens) (UniProt Q9NVM4).
T1 sequence (whole entry): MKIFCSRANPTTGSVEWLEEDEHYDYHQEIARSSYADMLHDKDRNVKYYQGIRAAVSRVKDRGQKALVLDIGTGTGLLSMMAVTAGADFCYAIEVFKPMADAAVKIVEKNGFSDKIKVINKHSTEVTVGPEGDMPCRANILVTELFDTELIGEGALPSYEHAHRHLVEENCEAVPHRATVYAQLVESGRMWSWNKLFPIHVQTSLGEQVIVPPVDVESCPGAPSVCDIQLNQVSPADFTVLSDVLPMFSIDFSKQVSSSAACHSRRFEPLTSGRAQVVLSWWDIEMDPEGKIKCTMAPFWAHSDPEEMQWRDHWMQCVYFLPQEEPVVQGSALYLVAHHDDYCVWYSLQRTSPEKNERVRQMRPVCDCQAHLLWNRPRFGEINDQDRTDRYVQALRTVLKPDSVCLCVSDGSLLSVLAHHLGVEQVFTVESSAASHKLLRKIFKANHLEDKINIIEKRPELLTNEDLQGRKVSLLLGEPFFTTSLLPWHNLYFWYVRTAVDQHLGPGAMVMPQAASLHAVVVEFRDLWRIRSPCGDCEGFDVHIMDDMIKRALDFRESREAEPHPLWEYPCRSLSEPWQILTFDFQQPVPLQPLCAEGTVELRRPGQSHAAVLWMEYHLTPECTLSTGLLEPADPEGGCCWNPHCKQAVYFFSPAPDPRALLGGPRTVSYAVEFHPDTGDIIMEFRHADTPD
Conditions: at 10 µM.

Assay [7] concerns the target Histone-lysine N-methyltransferase ASH1L (Homo sapiens) (UniProt Q9NR48). Conditions: at 10 µM.
In assay [8] the target is Tyrosine-protein kinase JAK1 (Homo sapiens, UniProt P23458). Nature of the assay: Selectivity interaction (Ambit KINOMEscan and KiNATiv profiling in Jurkat cells) EUB0000090b JAK1. The assay is classed as cell-based. Conditions: at 1 µM.
Chain of Tyrosine-protein kinase JAK1 (P23458 whole entry): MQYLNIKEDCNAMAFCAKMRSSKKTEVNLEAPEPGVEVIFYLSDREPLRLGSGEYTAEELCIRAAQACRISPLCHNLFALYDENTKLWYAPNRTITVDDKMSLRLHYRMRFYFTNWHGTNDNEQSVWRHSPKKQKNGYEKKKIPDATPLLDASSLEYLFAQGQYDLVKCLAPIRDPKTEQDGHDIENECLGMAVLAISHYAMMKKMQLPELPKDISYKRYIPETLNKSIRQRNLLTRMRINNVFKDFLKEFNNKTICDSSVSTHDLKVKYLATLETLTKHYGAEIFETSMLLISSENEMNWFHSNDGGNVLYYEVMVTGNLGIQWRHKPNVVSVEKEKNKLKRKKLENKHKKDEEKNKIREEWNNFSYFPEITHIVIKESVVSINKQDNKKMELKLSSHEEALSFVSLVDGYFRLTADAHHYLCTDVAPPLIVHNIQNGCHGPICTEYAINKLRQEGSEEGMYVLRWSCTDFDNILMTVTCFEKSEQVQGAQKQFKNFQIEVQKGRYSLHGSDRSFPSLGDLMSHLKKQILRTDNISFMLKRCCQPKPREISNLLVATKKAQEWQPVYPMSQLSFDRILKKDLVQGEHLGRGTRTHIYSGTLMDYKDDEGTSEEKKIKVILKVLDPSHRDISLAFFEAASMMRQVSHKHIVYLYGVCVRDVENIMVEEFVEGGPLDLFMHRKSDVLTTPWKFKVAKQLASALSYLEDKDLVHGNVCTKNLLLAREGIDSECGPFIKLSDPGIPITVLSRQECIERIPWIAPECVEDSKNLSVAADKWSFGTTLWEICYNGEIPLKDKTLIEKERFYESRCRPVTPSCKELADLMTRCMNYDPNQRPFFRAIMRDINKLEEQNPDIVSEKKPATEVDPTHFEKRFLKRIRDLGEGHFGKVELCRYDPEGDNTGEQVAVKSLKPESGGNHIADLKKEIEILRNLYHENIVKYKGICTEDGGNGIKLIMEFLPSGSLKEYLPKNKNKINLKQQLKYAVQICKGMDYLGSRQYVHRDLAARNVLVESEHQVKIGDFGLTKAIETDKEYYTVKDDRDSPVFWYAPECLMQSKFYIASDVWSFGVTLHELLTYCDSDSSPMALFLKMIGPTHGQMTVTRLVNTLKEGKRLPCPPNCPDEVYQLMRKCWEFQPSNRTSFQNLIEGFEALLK
For assay [9], the target named is Phosphatidylinositol 4-phosphate 5-kinase type-1 alpha (Homo sapiens) (UniProt Q99755). Nature of the assay: Selectivity interaction (KinomeScan (DiscoverX)) EUB0001049a PIP5K1A. Conditions: at 1 µM.
Assay [10] has as its target Beta-2 adrenergic receptor (Homo sapiens, UniProt P07550). Nature of the assay: Selectivity interaction (Panel of kinases, GPCRs, ion channels and transporters (enzymatic assay)) EUB0000223bCl ADRB2.
The target in assay [11] is T2, Serine/threonine-protein kinase TAO3 (Homo sapiens) (UniProt Q9H2K8).
T2 sequence (whole entry): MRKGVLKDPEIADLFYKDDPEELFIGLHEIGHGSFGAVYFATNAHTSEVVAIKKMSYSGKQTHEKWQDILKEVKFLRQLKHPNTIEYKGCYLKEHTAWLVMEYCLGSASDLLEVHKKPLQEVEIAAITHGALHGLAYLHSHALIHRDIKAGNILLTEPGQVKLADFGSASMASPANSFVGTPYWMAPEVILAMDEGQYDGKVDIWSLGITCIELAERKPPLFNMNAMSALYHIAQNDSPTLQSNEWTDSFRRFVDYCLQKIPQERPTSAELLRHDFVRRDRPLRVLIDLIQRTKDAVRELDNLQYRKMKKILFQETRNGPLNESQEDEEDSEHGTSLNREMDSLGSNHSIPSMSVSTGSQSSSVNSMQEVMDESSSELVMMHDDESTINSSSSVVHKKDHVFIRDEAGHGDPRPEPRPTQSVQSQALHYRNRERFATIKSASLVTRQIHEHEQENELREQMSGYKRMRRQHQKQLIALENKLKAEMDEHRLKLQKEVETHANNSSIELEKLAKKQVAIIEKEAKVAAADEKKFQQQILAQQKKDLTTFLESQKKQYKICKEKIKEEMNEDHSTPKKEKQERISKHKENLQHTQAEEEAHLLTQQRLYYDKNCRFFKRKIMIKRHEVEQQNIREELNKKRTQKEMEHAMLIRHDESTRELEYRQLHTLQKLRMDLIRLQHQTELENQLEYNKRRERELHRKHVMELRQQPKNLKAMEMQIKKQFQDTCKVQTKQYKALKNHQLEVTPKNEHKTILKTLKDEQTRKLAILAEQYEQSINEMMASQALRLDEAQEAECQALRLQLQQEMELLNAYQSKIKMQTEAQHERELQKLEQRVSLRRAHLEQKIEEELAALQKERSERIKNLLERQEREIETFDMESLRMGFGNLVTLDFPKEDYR
Nature of the assay: Selectivity interaction (KinomeScan (DiscoverX)) EUB0000655a TAOK3. Conditions: at 10 µM.

Here are results for nine molecules from ChEMBL document CHEMBL5465560, “Selectivity Literature for EUbOPEN Chemogenomic Library” (2024).

Chain of Beta-2 adrenergic receptor (P07550 whole entry, looked up): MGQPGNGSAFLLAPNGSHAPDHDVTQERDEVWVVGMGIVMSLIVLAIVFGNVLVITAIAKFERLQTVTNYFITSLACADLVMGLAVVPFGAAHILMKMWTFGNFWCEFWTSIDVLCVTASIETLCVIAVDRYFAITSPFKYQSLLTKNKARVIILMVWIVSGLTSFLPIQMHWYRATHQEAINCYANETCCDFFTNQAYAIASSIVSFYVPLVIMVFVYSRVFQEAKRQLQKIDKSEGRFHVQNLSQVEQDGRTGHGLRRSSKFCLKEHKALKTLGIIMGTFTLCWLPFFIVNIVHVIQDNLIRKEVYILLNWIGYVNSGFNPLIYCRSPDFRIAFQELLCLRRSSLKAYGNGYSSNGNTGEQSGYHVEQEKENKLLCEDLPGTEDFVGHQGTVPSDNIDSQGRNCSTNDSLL
Chain of Aurora kinase B (Q96GD4 whole entry): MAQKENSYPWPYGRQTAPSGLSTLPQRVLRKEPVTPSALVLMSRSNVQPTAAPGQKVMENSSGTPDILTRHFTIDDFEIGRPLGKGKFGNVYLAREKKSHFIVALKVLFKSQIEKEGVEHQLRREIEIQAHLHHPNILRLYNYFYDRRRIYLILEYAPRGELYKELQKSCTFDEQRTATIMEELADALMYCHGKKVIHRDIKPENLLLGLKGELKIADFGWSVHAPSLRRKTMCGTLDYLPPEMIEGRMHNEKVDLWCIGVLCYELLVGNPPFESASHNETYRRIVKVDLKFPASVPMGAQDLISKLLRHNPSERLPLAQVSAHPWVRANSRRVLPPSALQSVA
Chain of Calcium/calmodulin-dependent protein kinase kinase 2 (Homo sapiens) (Q96RR4 2-588 limits assumed): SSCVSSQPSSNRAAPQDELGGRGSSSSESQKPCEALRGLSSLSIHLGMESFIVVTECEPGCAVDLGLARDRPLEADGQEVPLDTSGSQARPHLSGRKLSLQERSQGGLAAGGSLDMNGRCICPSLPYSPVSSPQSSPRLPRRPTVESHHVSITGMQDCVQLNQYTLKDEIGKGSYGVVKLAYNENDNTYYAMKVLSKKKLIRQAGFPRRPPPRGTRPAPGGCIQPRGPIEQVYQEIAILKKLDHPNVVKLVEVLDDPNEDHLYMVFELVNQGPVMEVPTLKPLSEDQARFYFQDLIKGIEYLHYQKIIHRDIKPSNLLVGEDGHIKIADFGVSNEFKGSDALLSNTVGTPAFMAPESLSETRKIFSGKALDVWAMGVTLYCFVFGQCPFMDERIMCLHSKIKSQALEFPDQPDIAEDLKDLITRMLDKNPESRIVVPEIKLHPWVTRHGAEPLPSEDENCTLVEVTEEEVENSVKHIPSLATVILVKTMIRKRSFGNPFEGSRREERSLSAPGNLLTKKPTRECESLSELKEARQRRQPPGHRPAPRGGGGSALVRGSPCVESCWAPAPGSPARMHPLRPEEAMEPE
Chain of Ribosomal protein S6 kinase alpha-4 (Homo sapiens) (O75676 whole entry, looked up): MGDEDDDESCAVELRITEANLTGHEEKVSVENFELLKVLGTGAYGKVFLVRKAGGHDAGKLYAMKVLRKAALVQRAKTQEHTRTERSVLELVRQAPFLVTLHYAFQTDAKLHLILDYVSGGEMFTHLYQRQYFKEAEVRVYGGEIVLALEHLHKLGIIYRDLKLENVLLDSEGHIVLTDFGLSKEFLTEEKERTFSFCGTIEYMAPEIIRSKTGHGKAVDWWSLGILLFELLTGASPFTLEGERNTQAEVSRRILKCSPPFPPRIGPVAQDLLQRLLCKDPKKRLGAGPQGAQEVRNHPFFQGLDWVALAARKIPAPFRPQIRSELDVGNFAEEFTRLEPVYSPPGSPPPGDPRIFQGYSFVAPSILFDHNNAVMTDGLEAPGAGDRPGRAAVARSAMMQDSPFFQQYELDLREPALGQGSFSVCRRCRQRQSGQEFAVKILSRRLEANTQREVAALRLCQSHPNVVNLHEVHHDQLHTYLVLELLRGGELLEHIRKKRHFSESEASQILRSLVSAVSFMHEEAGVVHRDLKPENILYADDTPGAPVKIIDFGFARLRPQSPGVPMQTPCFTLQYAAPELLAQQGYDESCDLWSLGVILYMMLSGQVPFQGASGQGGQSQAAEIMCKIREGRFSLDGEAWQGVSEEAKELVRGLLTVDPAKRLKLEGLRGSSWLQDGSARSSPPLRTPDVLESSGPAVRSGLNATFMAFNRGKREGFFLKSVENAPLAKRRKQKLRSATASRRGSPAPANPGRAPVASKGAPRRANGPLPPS
Chain of Mast/stem cell growth factor receptor Kit (P10721 whole entry): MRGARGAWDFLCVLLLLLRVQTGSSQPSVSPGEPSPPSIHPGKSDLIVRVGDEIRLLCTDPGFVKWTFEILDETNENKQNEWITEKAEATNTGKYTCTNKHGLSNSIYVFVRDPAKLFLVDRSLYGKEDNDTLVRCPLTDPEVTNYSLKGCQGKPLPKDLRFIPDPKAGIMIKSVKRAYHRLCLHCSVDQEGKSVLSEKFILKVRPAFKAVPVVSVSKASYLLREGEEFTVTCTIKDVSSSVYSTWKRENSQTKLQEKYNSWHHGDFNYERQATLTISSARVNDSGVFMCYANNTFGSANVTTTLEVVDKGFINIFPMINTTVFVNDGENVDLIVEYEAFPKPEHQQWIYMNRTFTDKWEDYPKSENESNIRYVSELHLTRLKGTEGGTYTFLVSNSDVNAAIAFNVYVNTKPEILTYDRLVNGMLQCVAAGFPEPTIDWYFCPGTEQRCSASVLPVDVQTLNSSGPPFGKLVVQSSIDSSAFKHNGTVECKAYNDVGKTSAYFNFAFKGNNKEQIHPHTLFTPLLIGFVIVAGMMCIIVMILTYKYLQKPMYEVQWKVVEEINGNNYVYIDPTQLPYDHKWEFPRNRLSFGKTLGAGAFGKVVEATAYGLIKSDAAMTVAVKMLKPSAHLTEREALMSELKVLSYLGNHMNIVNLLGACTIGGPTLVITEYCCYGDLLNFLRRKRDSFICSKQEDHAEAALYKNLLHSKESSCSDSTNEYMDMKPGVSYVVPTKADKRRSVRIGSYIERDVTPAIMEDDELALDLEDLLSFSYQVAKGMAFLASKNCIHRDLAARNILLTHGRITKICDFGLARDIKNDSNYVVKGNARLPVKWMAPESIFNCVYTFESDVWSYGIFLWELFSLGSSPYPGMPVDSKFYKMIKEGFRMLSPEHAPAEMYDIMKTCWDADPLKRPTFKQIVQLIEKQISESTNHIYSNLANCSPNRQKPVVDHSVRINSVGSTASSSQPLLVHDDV

Regarding `N#Cc1cccc(-c2c[nH]c3ncnc(N4CCOCC4)c23)c1`, the % of inhibition in assay [1] was 49%.
Take `CNC(=O)Nc1ccc(-c2nc(N3CC4CCC(C3)O4)c3cnn(C4CCC5(CC4)OCCO5)c3n2)cc1`: in assay [2], the % of inhibition was 0%. In addition, in assay [3], the % of control is 90%.
As to `Cc1cnc(Nc2ccc(F)cc2Cl)nc1-c1c[nH]c(C(=O)N[C@H](CO)c2cccc(Cl)c2)c1`, the % of inhibition in assay [4] came out at 8%.
`CC[C@@H]1[C@H](F)C(=O)N[C@@H]1COc1nccc2cc(C(N)=O)c(OC)cc12` [ZIMLOVISERTIB]: the % of inhibition is 0.3% in assay [5] (at 0.01 µM); 2.2% in assay [5] (at 0.04 µM); 5.7% in assay [5] (at 0.2 µM); 0.6% in assay [5] (at 1 µM); -23.7% in [5] (at 5 µM); -1% at Aurora kinase B.
For `CNCCN1CCC(c2cc(CN(C)C(=O)c3cccc(Oc4ccccc4)c3)ccn2)CC1`, the % activity in [6] and in assay [7] was more than 90% each time.
The molecule `CN(C)C/C=C/C(=O)Nc1ccc(C(=O)N2CCCC(Nc3ncc(Cl)c(-c4c[nH]c5ccccc45)n3)C2)cc1` (stereo unspecified) returned a % of control in assay [8] of 86%.
The molecule `COc1cc(Nc2nc(C)cc(-c3cnn4nc(OC)ccc34)n2)cc(C(F)(F)F)c1` had a % of control in [9] of 81%.
For the molecule `COc1cc(C(=O)N2CC[C@@H](O)[C@@H](N)C2)cc2nc(-c3cc4ccccc4n3CC3CC3)n(C)c12`, the pXC50 in assay [10] was less than 4.5 M.
In turn, `CN(C)CCOc1ccc(-c2nc(-c3ccncc3)c(-c3ccc4c(c3)CC/C4=N\O)[nH]2)cc1` came in with a % of control in [11] of 75%.
